Source: patent US20030044399A1, “Method of treatment” (SmithKline Beecham Corporation, priority 1998, published 2003)
Read-outs that look alike come from different tables or passages of the source.

Tests used:
Rhodazain = Rhodazain (Trypanosoma brucei rhodesiense, UniProt Q95PM0); experiment: Cysteine protease inhibition, progress curve method, rhodazain; assay type: biochemical, Trypanosoma brucei rhodesiensi; settings: 10 uM Cbz-Leu-Arg-AMC, 100 mM Na acetate pH 5.5, 5 mM cysteine
Protocol: (§1) Standard assay conditions for the determination of kinetic constants used 10 uM fluorogenic peptide substrate, Cbz-Phe-Arg-AMC for the cysteine proteases from Leishmania spp and Schistosoma Mansoni, Cbz-Leu-Arg-AMC for the cysteine proteases from Plasmodium falciparum and Trypanosoma brucei rhodesiensi, and Ac-Lys-Glu-Lys-Leu-Arg-AMC (4 uM final substrate concentration) for the cysteine protease from Trypoanosoma cruzi, and were determined in 100 mM Na acetate at pH 5.5 containing 5 mM cysteine. Stock substrate solutions were prepared at concentrations of […] in DMSO with 10 uM (4 uM for Ac-Lys-Glu-Lys-Leu-Arg-AMC) final substrate concentration in the assays. The final DMSO concentration was 2% and the final volume was 100 uL. All assays were conducted at ambient temperature. Product progress curves were generated over 20 to 30 minutes following formation of AMC product.
(§2) Potential inhibitors were evaluated using the progress curve method. Assays were carried out in the presence of variable concentrations of test compound. Reactions were initiated by addition of enzyme to buffered solutions of inhibitor and substrate. Data analysis was conducted according to one of two procedures depending on the appearance of the progress curves in the presence of inhibitors. For those compounds whose progress curves were linear, apparent inhibition constants (Ki,app) were calculated according to equation 1 (Brandt et al., Biochemitsry, 1989, 28, 140):
(§3) v=VmA/[Ka(1+I/Ki,app)+A] (1)
(§4) Where v is the velocity of the reaction with maximal velocity Vm, A is the concentration of substrate with Michaelis constant of Ka, and I is the concentration of inhibitor.
(§5) [AMC]=vsst+(v0−vss)[1−exp (−kobst)]/kobs (2)
(§6) Where [AMC] is the concentration of product formed over time t, v0 is the initial reaction velocity and vss is the final steady state rate. Values for kobs were then analyzed as a linear function of inhibitor concentration to generate an apparent second order rate constant (kobs/inhibitor concentration or kobs/[I]) describing the time-dependent inhibition. A complete discussion of this kinetic treatment has been fully described (Morrison et al., Adv. Enzymol. Relat. Areas Mol. Biol., 1988, 61, 201).
(§7) Exemplary inhibition data for the compounds used in the present method collected in accordance with the above-described procedure are listed in Table I.

Cruzain = Cruzain (Trypanosoma cruzi, UniProt P25779); experiment: Cysteine protease inhibition, progress curve method, cruzain; assay type: biochemical; settings: 4 uM Ac-Lys-Glu-Lys-Leu-Arg-AMC, 100 mM Na acetate pH 5.5, 5 mM cysteine; read-out: Cruzain Ki
Protocol: as §1, §2, §3, §4, §5, §6, §7

Rhodazain, sequence (Q95PM0 entry or part of it): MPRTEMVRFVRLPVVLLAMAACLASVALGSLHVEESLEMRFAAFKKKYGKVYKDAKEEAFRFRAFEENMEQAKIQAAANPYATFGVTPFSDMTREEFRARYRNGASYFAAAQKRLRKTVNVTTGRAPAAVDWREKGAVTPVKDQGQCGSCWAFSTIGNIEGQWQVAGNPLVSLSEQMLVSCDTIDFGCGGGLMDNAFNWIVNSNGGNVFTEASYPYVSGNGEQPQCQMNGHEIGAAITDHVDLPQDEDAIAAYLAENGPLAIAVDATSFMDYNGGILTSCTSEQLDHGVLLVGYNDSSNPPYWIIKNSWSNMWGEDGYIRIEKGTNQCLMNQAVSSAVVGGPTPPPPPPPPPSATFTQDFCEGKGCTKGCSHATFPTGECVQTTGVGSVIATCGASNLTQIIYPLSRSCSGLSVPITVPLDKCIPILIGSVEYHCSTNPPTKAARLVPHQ
Cruzain, sequence (P25779 123-337): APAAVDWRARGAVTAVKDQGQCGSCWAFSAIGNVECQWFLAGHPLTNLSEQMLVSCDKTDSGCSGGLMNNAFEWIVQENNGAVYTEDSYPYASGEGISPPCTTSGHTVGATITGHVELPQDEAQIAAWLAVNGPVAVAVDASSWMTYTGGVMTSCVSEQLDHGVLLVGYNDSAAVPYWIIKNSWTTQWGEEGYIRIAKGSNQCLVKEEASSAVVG

Ki (Cruzain) | Molecule | other results
– | Cc1coc(C(=O)N[C@@H](CC(C)C)C(=O)N[C@H]2CCCN(C(=O)Nc3ccccc3F)CC2=O)c1 [Example 222, 4-Methyl-furan-2-carboxylic acid {(S)-1-[1-(2-fluoro-phenylcarbamoyl)-3-oxo-azepan-4-ylcarbamoyl]-3-methyl-butyl}-amide] | Ki (Rhodazain; Rhodazain Ki (nM)): 4.9 nM
– | Naphthyridine-2-carboxylic acid {(S)-3-methyl-1-[3-oxo-1-(pyridine-2-sulfonyl)-azepan-4-ylcarbamoyl]-butyl}-amide [Example 177] | Ki (Rhodazain; read-out: Rhodazain Ki): 9 nM
– | CC(C)C[C@@H](NC(=O)c1ccc(-c2cccc(C(F)(F)F)c2)o1)C(=O)NC1CCCN(C(=O)c2cccc[n+]2[O-])CC1=O (stereo partly drawn) [Example 186, 5-(3-Trifluoromethyl-phenyl)-furan-2-carboxylic acid ((S)-3-methyl-1-{3-oxo-1[-1-(1-oxy-pyridin-2-yl)-methanoyl]-azepan-4-ylcarbamoyl}-butyl)-amide] | Ki (Rhodazain; Rhodazain Ki (nM)): 11 nM
– | CC(C)C[C@H](NC(=O)c1cnc2ccccc2n1)C(=O)N[C@H]1CCCN(S(=O)(=O)c2nccs2)CC1=O [Example 129, Quinoxaline-2-carboxylic acid {(S)-3-methyl-1-[3-oxo-1-(thiazole-2-sulfonyl)-azepan-4-ylcarbamoyl]-butyl}amide] | Ki (Rhodazain; Rhodazain Ki (nM)): 5.6 nM
– | O=C(N[C@H](Cc1ccccc1)C(=O)N[C@@H]1CCCN(S(=O)(=O)c2ccccn2)CC1=O)c1ccc2ccccc2n1 (stereo in doubt) [Example 180, Quinoline-2-carboxylic acid {(S)-1-[3-oxo-1-(pyridine-2-sulfonyl)-azepan-4-ylcarbamoyl]-2-phenyl-ethyl}-amide] | Ki (Rhodazain; Rhodazain Ki (nM)): 9.3 nM
– | CC(C)C[C@@H](NC(=O)c1cnc2ccccc2c1)C(=O)N[C@@H]1CCCN(S(=O)(=O)c2ccccn2)CC1=O [Example 27] | Ki (Rhodazain; Rhodazain Ki (nM)): 13 nM
– | CC(C)C[C@H](NC(=O)c1nc(-c2ccccc2)oc1C(F)(F)F)C(=O)NC1CCCN(S(=O)(=O)c2ccccn2)CC1=O (stereo partly drawn) [Example 72, 2-Phenyl-5-trifluoromethyl-oxazole-4-carboxylic acid {(S)-3-methyl-1-[3-oxo-1-(pyridine-2-sulfonyl)-azepan-4-ylcarbamoyl]-butyl}amide] | Ki (Rhodazain; Rhodazain Ki (nM)): 9.9 nM
– | CC(C)C[C@H](NC(=O)c1ccc(-c2ccc(Cl)cc2)o1)C(=O)N[C@@H]1CCCN(S(=O)(=O)c2ccccn2)CC1=O [Example 65, 5-(4-Chloro-phenyl)-furan-2-carboxylic acid {(S)-3-methyl-1-[3-oxo-1-(pyridine-2-sulfonyl)-azepan-4-ylcarbamoyl]-butyl}amide] | Ki (Rhodazain; Rhodazain Ki (nM)): 8.1 nM
14 nM | CC(C)CC(NC(=O)c1ccc(S(C)(=O)=O)cc1)C(=O)N[C@@H]1CCCN(S(=O)(=O)c2ccccc2C#N)CC1=O (some centres unmarked) [Example 114] | –
11 nM | CC(C)C[C@@H](NC(=O)c1ccc(S(C)(=O)=O)cc1)C(=O)N[C@@H]1CCCN(S(=O)(=O)c2ccc(F)cc2)CC1=O [Example 121, 4-Methansulfonyl-N—{(S)-1-[4-fluoro-benzenesulfonyl)-3-oxo-azepan-4-carbamoyl]-3-methyl-butyl-benzamide] | –
33 nM | CC(C)C[C@@H](NC(=O)COc1ccc(F)cc1)C(=O)N[C@@H]1CCCN(S(=O)(=O)c2ccccn2)CC1=O (stereo in doubt) [Example 37, (S)-2-[2-(4-Fluoro-phenoxy)-acetylamino]-4-methyl-pentanoic acid [3-oxo-(pyridine-2-sulfonyl)-azepan-4-yl]-amide] | –
60 nM | CCCC[C@H](NC(=O)c1cc2ccccc2o1)C(=O)NC1CCCN(S(=O)(=O)c2ccccn2)CC1=O (stereo partly drawn) [Example 103, Benzofuran-2-carboxylic acid{(S)-1-[3-oxo-1-(pyridine-2-sulfonyl)-azepan-4-ylcarbamoyl]-pentyl}-amide] | –
24 nM | CC(C)CCC(=O)N1CCCC(NC(=O)[C@@H](CC(C)C)NC(=O)c2cc3cc(OCCN4CCOCC4)ccc3o2)C(=O)C1 (stereo partly drawn) [Example 15, 5-(2-Morpholino-4-yl-ethoxy)-benzofuran-2-carboxylic acid {(S)-3-methyl-1-[1-(4-methyl-2entanoyl)-3-oxo-azepan-4-ylcarbamoyl]-butyl}-amide] | –
6.8 nM | CC(C)C[C@H](NC(=O)[C@H]1CCC(=O)N1Cc1ccccc1)C(=O)N[C@@H]1CCCN(S(=O)(=O)c2ccccn2)CC1=O [Example 158] | –
6.7 nM | CC(C)C[C@H](NC(=O)c1cc2ccccc2s1)C(=O)N[C@@H]1CCCN(S(=O)(=O)c2cccs2)CC1=O [Example 146, Benzo[b]thiophene-2-carboxylic acid-{(S)-3-methyl-1-[3-oxo-1-(thiophene-2-sulfonyl)-azepan-4-ylcarbamoyl]-butyl}-amide] | –
15 nM | CC(C)CC(NC(=O)NCc1ccccc1)C(=O)NC1CCCN(S(=O)(=O)c2ccccn2)CC1=O [Example 80, (S)-2-(3-Benzyl-ureido)-4-methyl-pentanoic acid [3-oxo-carboxylic-(pyridine-2-sulfonyl)azepan4-yl]-amide] | –
21 nM | CC(C)C[C@@H](NC(=O)c1cc2cc(OCCN3CCOCC3)ccc2o1)C(=O)N[C@@H]1CCCN(S(=O)(=O)c2ccccc2)CC1=O (stereo in doubt) [Example 6, 5-(2-Morpholin-4-yl-ethoxy)-benzofuran-2-carboxylic acid [(S)-1-(1-benzenesulfonyl-3-oxo-azepan-4-ylcarbamoyl)-3-methyl-butyl]amide] | –
17 nM | CC(C)C[C@@H](NC(=O)c1cc2ccccc2[nH]1)C(=O)N[C@@H]1CCCN(S(=O)(=O)c2ccccn2)CC1=O (stereo in doubt) [Example 32, 1H-Indole-2-carboxylic acid {(S)-3-methyl-1-[3-oxo-1-(pyridine-2-sulfonyl)-azepan-4-ylcarbamoyl]-butyl}amide] | –
67 nM | CC(C)C[C@@H](NC(=O)c1cc2cc(OCCN3CCCCC3)ccc2o1)C(=O)NC1CCCN(S(=O)(=O)c2ccccc2)CC1=O (single isomer, unassigned) [Example 14] | –
8 nM | CC(C)C[C@@H](NC(=O)c1cc2cc(OCCN3CCOCC3)ccc2o1)C(=O)N[C@@H]1CCCN(S(=O)(=O)c2ccccn2)CC1=O (single isomer, unassigned) [Example 20] | –
7.4 nM | Cc1cccc(S(=O)(=O)N2CCC[C@@H](NC(=O)[C@@H](CC(C)C)NC(=O)c3cc4ccccc4o3)C(=O)C2)n1 (stereo in doubt) [Example 172, Benzofuran-2-carboxylic acid {(S)-3-methyl-1-[1-(6-methyl-pyridine-2-sulfonyl)-3-oxo-azepan-4-ylcarbamoyl]-butyl}amide] | –
8 nM | CC(C)C[C@@H](NC(=O)c1cc2cc(OCCN3CCCC3)ccc2o1)C(=O)N[C@@H]1CCCN(S(=O)(=O)c2ccccc2)CC1=O (stereo in doubt) [Example 8, 5-(2-Pyrrolidin-1-yl-ethoxy)-benzofuran-2-carboxylic acid [(S)-1-(1-benzenesulfonyl-3-oxo-azepan-4-ylcarbamoyl)-3-methyl-butyl]amide] | –
8.7 nM | CC(C)C[C@H](NC(=O)c1cnc2ccccc2n1)C(=O)N[C@H]1CCCN(S(=O)(=O)c2ccccc2F)CC1=O [Example 96, Quinoxaline-2-carboxylic acid-{(S)-1-[1-(2-fluoro-benzenesulonyl)-3-oxo-azepan-4-ylcarbamoyl]-3-methyl-butyl}-amide] | –
15 nM | CC(C)CC(NC(=O)c1cc2ccccc2o1)C(=O)NC1CCC(C)N(S(=O)(=O)c2ccccn2)CC1=O (stereo in doubt) [Example 181, Benzofuran-2-carboxylic acid {(S)-3-methyl-1-[(4S,7S)-7-methyl-3-oxo-1-(pyridine-2-sulfonyl)-azepan-4-ylcarbamoyl]-butyl}-amide] | –

Molecule | Ki (Cruzain) | other results
CC(C)C[C@@H](NC(=O)c1nccc2ccccc12)C(=O)N[C@@H]1CCCN(S(=O)(=O)c2ccccn2)CC1=O (stereo in doubt) [Example 29, Isoquinoline-1-carboxylic acid {(S)-3-methyl-1-[3-oxo-1-(pyridine-2-sulfonyl)-azepan-4-ylcarbamoyl]-butyl}amide] | 11 nM | –
COc1ccc2oc(C(=O)N[C@H](CC(C)C)C(=O)N[C@@H]3CCCN(S(=O)(=O)c4ccccn4)CC3=O)cc2c1 (stereo in doubt) [Example 33, 5-Methoxy-benzofuran-2-carboxylic acid {(S)-3-methyl-1-[3-oxo-1-(pyridine-2-sulfonyl)-azepan-4-ylcarbamoyl]-butyl}amide] | 14 nM | –
